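Protocol summary: plate cells (96-well), add compound at 5 concentrations, incubate 48 h, interpolate endpoints linearly. TGI: total growth inhibition.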
Columns and labels:
Test in all cases: growth of human tumour cells (NCI), 48 h
[1] = tested on: SR leukemia
[2] = tested on: SK-MEL-2 melanoma
[3] = tested on: SN12C renal
[4] = tested on: OVCAR-4 ovarian
[5] = tested on: MALME-3M melanoma
[6] = tested on: HT29 colon
[7] = tested on: SNB-19 CNS
[8] = tested on: EKVX NSCLC
[9] = tested on: MDA-MB-435
[10] = tested on: OVCAR-5 ovarian

SMILES | TGI [1] [µM] | TGI [2] [µM] | TGI [3] [µM] | TGI [4] [µM] | TGI [5] [µM] | TGI [6] [µM] | TGI [7] [µM] | TGI [8] [µM] | TGI [9] [µM] | TGI [10] [µM]
O=C(CSc1nnc(-c2ccc(N=Cc3ccc(Cl)cc3)cc2)o1)Nc1cccc(Cl)c1 | > 100 | > 100 | > 100 | > 100 | > 100 | > 100 | > 100 | > 100 | – | –
CCCCCCCC/C=C/CCCCCCCC1CC(O)C(=O)O1 (stereo not drawn) | > 100 | – | – | > 100 | > 100 | > 100 | > 100 | > 100 | > 100 | > 100
COc1cc2c(cc1O)C(C)Cc1cc3c(cc1N(C)CC2)OCO3 (stereo not drawn) | > 100 | 38.1 | 18.3 | > 65.2 | 20.1 | 29.7 | > 87.4 | > 34.9 | – | 54.9
Cn1c(=O)c2nc(N3CCCCC3)cnc2n(C)c1=O | > 100 | – | > 100 | > 100 | > 100 | > 100 | > 100 | > 100 | – | > 100
COc1cc(/C=C(\C#N)c2ccccn2)cc(Br)c1O | > 100 | > 100 | > 100 | > 100 | > 100 | > 100 | > 100 | > 100 | – | > 100
CC(C)(O)[C@H](CCO)O[Si](c1ccccc1)(c1ccccc1)C(C)(C)C | 26.4 | 28.4 | 14 | – | 31.5 | 24.6 | 19.5 | 29.6 | – | 28.1
CC1(C)C2CCC1(CC(=O)O)C(Cl)C2 (stereo not drawn) | – | > 100 | > 100 | > 100 | > 100 | > 100 | > 100 | > 100 | > 100 | > 100
COc1cc2c(cc1OC)C(Cc1c3ccccc3cc3ccccc13)N(C)CC2 (stereo not drawn) | – | 32.6 | > 100 | > 100 | – | 31 | 52.4 | 96.8 | – | 40.2
CCNCCCCNCC | – | > 3750 | > 3750 | > 3750 | > 3750 | > 3750 | > 3750 | > 3750 | – | > 3750
CN1CCN(c2ccc(-n3cc(C(=O)O)c(=O)c4cc(F)c(N5CCN(C)CC5)cc43)nc2)CC1 | > 100 | – | > 100 | > 100 | > 100 | > 100 | > 100 | > 100 | > 100 | > 100
CCOP(=O)(OCC)/C(C#N)=C/c1c(C)[nH]c2ccccc12 | > 100 | – | > 100 | > 100 | > 100 | > 100 | > 100 | > 100 | > 100 | > 100
COC(=O)NN1C(=O)C(=P(c2ccccc2)(c2ccccc2)c2ccccc2)C(C(=O)OC)=C1C | – | > 100 | > 100 | – | > 100 | > 100 | > 100 | > 100 | – | –

Reference: PubChem BioAssay (NCI)
